In PubChem BioAssay (NCI):
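Tested at 5 concentrations; 48 h exposure; 96-well plates; endpoints linearly interpolated, else capped at highest concentration. GI50 marks 50% less growth. At the TGI there is no net growth.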

Legend:
Test in all cases: growth of human tumour cells (NCI), 48 h
[1] = system: SF-295 CNS
[2] = system: RPMI-8226 leukemia
[3] = system: U251 CNS
[4] = system: NCI/ADR-RES ovarian
[5] = system: MCF7 breast
[6] = system: SK-MEL-5 melanoma
[7] = system: OVCAR-5 ovarian
[8] = system: A498 renal
[9] = system: SNB-19 CNS
[10] = system: SW-620 colon
[11] = system: LOX IMVI melanoma
[12] = system: SF-539 CNS
[13] = system: SR leukemia

Structure (SMILES)	TGI [1] [µM]	TGI [2] [µM]	TGI [3] [µM]	TGI [4] [µM]	TGI [5] [µM]	TGI [6] [µM]	TGI [7] [µM]	TGI [8] [µM]	TGI [9] [µM]	TGI [10] [µM]	TGI [11] [µM]	TGI [12] [µM]	TGI [13] [µM]	GI50 [2] [µM]	GI50 [12] [µM]	GI50 [13] [µM]	GI50 [5] [µM]	GI50 [8] [µM]	GI50 [11] [µM]
C[C@]12CC[C@@H]3c4ccc(O)cc4CC[C@H]3[C@@H]1CC[C@@H]2OC(=O)CCc1ccccc1	42	35.6	38.1	33.8	37.7	33.7	> 100	32.6	37.7	64.7	39.4	–	–	–	–	–	–	–	–
COc1cc(C(=O)CC2OC(=O)C(Cl)=C2Cl)ccc1Cl (configuration not stated)	> 100	> 100	> 100	–	–	> 100	> 100	> 100	> 100	> 100	> 100	> 100	> 100	–	–	–	–	–	–
CO/N=C\c1cc(O)c(O)c(/C=N/OC)c1	> 100	> 100	> 100	> 100	94.8	> 100	> 100	> 100	> 100	> 100	> 100	> 100	> 100	–	–	–	–	–	–
O=C1c2ccccc2C(=O)c2c(Nc3cc4c5c(ccc6c7ccc8c9c(cc(Nc%10cccc%11c%10C(=O)c%10ccccc%10C%11=O)c(c3c56)c97)-c3ccccc3C8=O)C(=O)c3ccccc3-4)cccc21	> 100	> 100	55	> 100	> 100	> 100	> 100	65.1	> 100	> 100	> 100	–	> 100	–	–	–	–	–	–
O=C(c1ccccc1)C1C(c2ccccc2)N1S(=O)(=O)c1ccccc1 (configuration not stated)	> 100	> 100	> 100	> 100	> 100	> 100	> 100	–	–	> 100	> 100	> 100	–	–	–	–	–	–	–
O=C1C=CC(=O)c2c(O)c(Br)c(Br)c(O)c21	36.9	3.42	33.7	58.7	5.48	27.2	30.8	36.9	33.1	3.44	–	30.5	0.289	–	–	–	–	–	–
Cc1ccc(C2COc3cc(O)c(O)cc3C2)cc1 (configuration not stated)	134	37.9	94.3	40.8	114	105	244	130	251	34.5	–	68.4	–	–	–	–	–	–	–
N#C/C(=C\c1ccc(Br)cc1)n1nnc2cc(Cl)c(Cl)cc21	–	4.38	–	–	> 100	–	–	4.51	–	–	3.3	4.86	> 100	1.42	2.2	1.36	1.51	1.78	1.71
OCc1cc2ccncc2c2c1[nH]c1ccccc12	25.1	37.2	18.9	–	–	25.1	26.7	19.6	–	19.7	16.3	14.8	20	–	–	–	–	–	–
